Measured values reported in patent publication US8410045B2, “Camptothecin-peptide conjugates and pharmaceutical compositions containing the same” (Drais Pharmaceuticals, Inc., priority 2006, dated 2013).
“Also recorded” adds a separate entry of the source. Structures can show the parent of a compound that is named as a salt. Marks after values point to notes of the source that are not given here.

Columns and labels:
[1] = M. Horikawa, Pharmaceutical Res. 2002; cited from earlier work
physchem = details: water
[2] = test system: HCT 116 human colorectal carcinoma tumor
[3] = dog; F. Lavelle et al., Seminar in Oncology (1996); cited from earlier work
[4] = Toxicity study in the beagle dog following intravenous infusion; details: dog, 30 mg/kg
Procedure: Adult female and male beagle dogs were individually housed with free access to tap water. A pellet diet was distributed daily.
Dogs (1 dog for each drug and dose) were infused intravenously through the cephalic or saphenous vein. These intravenous infusions were made using a single-use catheter (Intraflon®) and a plastic syringe connected to a syringe pump. During the injection, the animals were restrained in a hammock.
Conjugates were dissolved in water for injection (10% of final volume) and diluted with 0.9% NaCl to their final concentration. The volume administered to each animal was adjusted according to body weight.
Clinical signs, hematological and intestinal toxicities were monitored during a period of 15 days after infusion. Each animal was checked at least twice a day for mortality or signs of morbidity.
The body weight of each animal was recorded on the day −1, 4, 10 and 13.
Peripheral blood samples were taken into EDTA tubes for the determination of following parameters on days −1, 5, 11 and 14: erythrocytes, hemoglobin, mean cell volume, packed cell volume, mean cell hemoglobin concentration, mean cell hemoglobin, thrombocytes, leucocytes, differential white cell count with cell morphology.

NCI-H460 lung carcinoma = assay: Antitumor efficacy in NCI-H460 lung carcinoma model in nude mice; details: Table 9, 25 μmol/kg
[5] = In vitro cytotoxicity (WST-1 cell viability); assay type: cell-based, human; details: 1 h exposure + 48 h post-incubation; read-out: In vitro cytotoxicity IC50 (μM) NCI-H460
Procedure: Cytotoxic evaluation was performed by seeded cells for 24 h prior to the addition of the therapeutic compound. Cells were incubated for 48 h (37° C.) with different dilutions of the therapeutic compound. Cell viability was then assessed using the WST-1 assay (Roche). The results are expressed as mean cytotoxic concentrations (IC50 value or molar concentration that inhibits 50% of cell viability) that were estimated from sigmoid regression, using Graph Pad Prism 3.02 software.
NCI-H460 (ATCC#: HTB-177): human epithelial lung carcinoma cells. Cells were cultured in RPMI 1640+glutamax and 10% of fetal bovine serum. Cells were plated at a density of 10,000 cells/well in 96-well plates.

| SMILES | excreted into bile [1] | solubility (physchem) | TGI (100-T/C %) ([2]; Table 5, Q1D5, 18 (cumulative 90) μmol/kg) | Minimal T/C (%) ([2]; iv) | Maximal Tolerated Dose (MTD) [3] | body weight loss ([4]; 20 min infusion) | white blood cells depletion ([4]; Day 5) | Reduction in WBC at D5 (%) ([4]; i.v. infusion) | Toxic signs Day 1 ([4]; i.v. infusion) | Toxic signs Following Days ([4]; i.v. infusion) | In vivo efficacy Optimal T/C % (NCI-H460 lung carcinoma) | In vivo efficacy TGI % (NCI-H460 lung carcinoma) | In vivo efficacy Optimal T/C % (NCI-H460 lung carcinoma; listed as DPV1047-BCH-SN38.HCl) | IC50 [5] |
| --- | --- | --- | --- | --- | --- | --- | --- | --- | --- | --- | --- | --- | --- | --- |
| CCc1c2c(nc3ccc(OC(=O)N4CCC(N5CCCCC5)CC4)cc13)-c1cc3c(c(=O)n1C2)COC(=O)[C@]3(O)CC [irinotecan, reference compound] | > 26% | ≤ 2500 µg/mL | 90*** % | 10% | 30 mg/kg | −8.5% | 92% | −92% | Ptyalism; also recorded: Liquid feces; also recorded: Vomit; also recorded: Loss of balance; also recorded: Tremors (marked) | Vomit: D4 |  |  |  |  |
| CCc1c2c(nc3ccc(OC(=O)[C@H]4CC[C@H](CNC(=O)C5CCC(CN6C(=O)CC(SC[C@H](N)C(=O)N[C@H](C(=O)N[C@@H](CCCCN)C(=O)N[C@@H](CCCNC(=N)N)C(=O)NCC(=O)N[C@@H](CC(C)C)C(=O)N[C@@H](CCCCN)C(=O)N[C@@H](CC(C)C)C(=O)N[C@@H](CCCNC(=N)N)C(=O)N[C@@H](Cc7c[nH]cn7)C(=O)N[C@H](C(=O)N[C@@H](CCCNC(=N)N)C(=O)N7CCC[C@H]7C(=O)N[C@@H](CCCNC(=N)N)C(=O)N[C@H](C(=O)N[C@H](C(=O)N[C@@H](CCCNC(=N)N)C(=O)N[C@@H](CCSC)C(=O)N[C@@H](CC(=O)O)C(=O)N[C@H](C(=O)O)C(C)C)[C@@H](C)O)C(C)C)C(C)C)C(C)C)C6=O)CC5)CC4)cc13)-c1cc3c(c(=O)n1C2)COC(=O)[C@]3(O)CC (single isomer, unassigned) [DPV1047-BCH-SN38•HCl] |  |  |  |  |  |  |  |  |  |  | 22.9% | 77.1% | 18.4% | 173 µM |
